Reference: the supplement of paper PMC13380429

Key:
Vero E6 [1] = assay: cell viability relative to DMSO; higher = less toxic; conditions: 72 h
U2OS [2] = assay: as above; conditions: 72 h
Calu-3 [3] = assay: as above; conditions: 72 h
HepG2 [4] = assay: as above; conditions: 72 h
Caco-2 [5] = assay: as above; conditions: 72 h
Vero E6 [6] = assay: relative viability EC50 (midpoint between 100% and the lowest measured viability); higher = less toxic; conditions: 72 h
Calu-3 [7] = assay: as above; conditions: 72 h
HepG2 [8] = assay: as above; conditions: 72 h
Vero E6 [9] = assay: drug sensitivity score (DSS) for viability; higher = more toxic; extreme values may be limits of the assay; conditions: 72 h
U2OS [10] = assay: as above; conditions: 72 h
Calu-3 [11] = assay: as above; conditions: 72 h
HepG2 [12] = assay: as above; conditions: 72 h
Caco-2 [13] = assay: as above; conditions: 72 h
[14] = test system: A549-ACE2 infected with SARS-CoV-2; assay: SARS-CoV-2 infection rate relative to DMSO; higher = more infection; conditions: 24 h
A549-ACE2 [15] = assay: drug-induced phospholipidosis relative to tamoxifen; higher = more phospholipidosis
[16] = test system: A549-ACE2 infected with SARS-CoV-2; assay: cell count relative to DMSO; higher = less toxic; conditions: 24 h
[17] = test system: A549-ACE2 infected with SARS-CoV-2; assay: morphology score (similarity to uninfected cells); higher = more like uninfected cells; conditions: 24 h
U2OS [18] = assay: relative viability EC50 (midpoint between 100% and the lowest measured viability); higher = less toxic; conditions: 72 h
A549-ACE2 [19] = assay: phospholipidosis EC50; higher = less potent phospholipidosis inducer
Caco-2 [20] = assay: relative viability EC50 (midpoint between 100% and the lowest measured viability); higher = less toxic; conditions: 72 h

Cc1csc(-c2nnc(Nc3ccc(Oc4ncccc4-c4ccnc(N)n4)cc3)c3ccccc23)c1 [AMG900]
Conditions	SARS-CoV-2 infection rate, [14] [%]	cell count, [16] [%]	cell viability, Caco-2 [5] [%]	cell viability, Calu-3 [3] [%]	cell viability, HepG2 [4] [%]	cell viability, U2OS [2] [%]	cell viability, Vero E6 [1] [%]	morphology score, [17]
1 nM	–	–	94.6	104	101	93.9	100	–
10 nM	–	–	90.5	90.7	73.4	93.8	82.2	–
100 nM	–	–	96.1	92	76.6	85.5	80.4	–
0.1 µM	97	77	–	–	–	–	–	0.14
0.3 µM	93	73	–	–	–	–	–	0.2
1000 nM	–	–	77.3	77.8	53.6	82.3	81.7	–
1 µM	105	74	–	–	–	–	–	-0.05
3 µM	104	75	–	–	–	–	–	-0.08
10000 nM	–	–	65.5	81.4	2.2	68.2	75.8	–

Conditions	drug sensitivity score	relative viability EC50 [µM]
Caco-2 [13]	4.2	–
Calu-3 [7]	–	> 10
Calu-3 [11]	3.3	–
HepG2 [8]	–	0.54
HepG2 [12]	13.9	–
U2OS [10]	4.3	–
Vero E6 [6]	–	> 10
Vero E6 [9]	8.5	–

drug-induced phospholipidosis [%], A549-ACE2 [15]
Conditions	0.3 µM	0.833333 µM	3.33333 µM	6.66667 µM	10 µM	30 µM
24 h	13.3	10.1	22.8	35.6	44.4	33.3
48 h	–	–	27.1	–	34.6	7.09

Cn1c(NC[C@@H](N)Cc2ccccc2)nc(-c2ccncc2)c(-c2ccc3ccccc3c2)c1=O [AMG-548]
Conditions	SARS-CoV-2 infection rate [%]	cell count [%]	cell viability [%]	morphology score	phospholipidosis EC50 [µM]
A549-ACE2 [19], 24 h	–	–	–	–	8.48
A549-ACE2 [19], 48 h	–	–	–	–	9.02
A549-ACE2 [19], 72 h	–	–	–	–	9.93
Caco-2 [5], 1 nM	–	–	96.8	–	–
Caco-2 [5], 10 nM	–	–	87.9	–	–
Caco-2 [5], 100 nM	–	–	102	–	–
Caco-2 [5], 1000 nM	–	–	89.5	–	–
Caco-2 [5], 10000 nM	–	–	69.9	–	–
HepG2 [4], 1 nM	–	–	106	–	–
HepG2 [4], 10 nM	–	–	108	–	–
HepG2 [4], 100 nM	–	–	101	–	–
HepG2 [4], 1000 nM	–	–	104	–	–
HepG2 [4], 10000 nM	–	–	72.4	–	–
U2OS [2], 1 nM	–	–	101	–	–
U2OS [2], 10 nM	–	–	94.2	–	–
U2OS [2], 100 nM	–	–	93.1	–	–
U2OS [2], 1000 nM	–	–	85.3	–	–
U2OS [2], 10000 nM	–	–	76.3	–	–
Vero E6 [1], 1 nM	–	–	106	–	–
Vero E6 [1], 10 nM	–	–	104	–	–
Vero E6 [1], 100 nM	–	–	99.2	–	–
Vero E6 [1], 1000 nM	–	–	89	–	–
Vero E6 [1], 10000 nM	–	–	97.2	–	–
[14], 0.3 µM	99	–	–	–	–
[14], 3 µM	71	–	–	–	–
[14], 10 µM	27	–	–	–	–
[14], 30 µM	11	–	–	–	–
[16], 0.3 µM	–	93	–	–	–
[16], 3 µM	–	110	–	–	–
[16], 10 µM	–	123	–	–	–
[16], 30 µM	–	106	–	–	–
[17], 0.3 µM	–	–	–	-0.14	–
[17], 3 µM	–	–	–	0.22	–
[17], 10 µM	–	–	–	0.82	–
[17], 30 µM	–	–	–	0.53	–

Conditions	drug sensitivity score	relative viability EC50 [µM]
Caco-2 [13]	2.8	–
HepG2 [12]	0.9	–
U2OS [10]	2.3	–
U2OS [18]	–	> 10
Vero E6 [6]	–	> 10
Vero E6 [9]	0.3	–

drug-induced phospholipidosis [%], A549-ACE2 [15]
Conditions	0.3 µM	0.833333 µM	3.33333 µM	6.66667 µM	10 µM	30 µM
24 h	-3.67	-2.85	6.77	44.3	80.5	129
48 h	-2.54	-2.01	5.31	39.9	73.3	125
72 h	-1.85	-0.623	7.44	37.6	80.8	151

[Cl][Ru-]([Cl])([Cl])[Cl].[Na+].c1ccc2[nH]ncc2c1.c1ccc2[nH]ncc2c1 [NKP-1339]
Conditions	SARS-CoV-2 infection rate, [14] [%]	cell count, [16] [%]	cell viability, Caco-2 [5] [%]	cell viability, Calu-3 [3] [%]	cell viability, U2OS [2] [%]	cell viability, Vero E6 [1] [%]	morphology score, [17]
1 nM	–	–	98.5	96.2	94.2	95.7	–
10 nM	–	–	96.6	91.9	95.9	99.2	–
100 nM	–	–	94.3	93.2	100	98.9	–
0.3 µM	95	98	–	–	–	–	0.32
1000 nM	–	–	89.9	111	98.4	104	–
3 µM	99	103	–	–	–	–	0.06
10000 nM	–	–	85.2	96.1	99.5	103	–
10 µM	97	100	–	–	–	–	0.14
30 µM	91	105	–	–	–	–	0.16

Conditions	drug sensitivity score	relative viability EC50 [µM]
Caco-2 [13]	0.5	–
Caco-2 [20]	–	> 10
Calu-3 [7]	–	> 10
Calu-3 [11]	0	–
U2OS [10]	0	–
U2OS [18]	–	> 10
Vero E6 [6]	–	> 10
Vero E6 [9]	0	–

drug-induced phospholipidosis [%], A549-ACE2 [15]
Conditions	0.3 µM	0.833333 µM	3.33333 µM	6.66667 µM	10 µM	30 µM
24 h	-0.57	0.18	-2.08	-1.49	-1.44	2.85
48 h	0.31	0.08	-0.84	-0.18	-0.5	1.39
72 h	0.516	-1.21	-0.615	-0.927	0.0701	3.63

Cc1nnc2n1-c1sc(CCC(=O)N3CCOCC3)cc1C(c1ccccc1Cl)=NC2 [apafant]
Conditions	SARS-CoV-2 infection rate, [14] [%]	cell count, [16] [%]	cell viability, Caco-2 [5] [%]	cell viability, Calu-3 [3] [%]	cell viability, HepG2 [4] [%]	cell viability, Vero E6 [1] [%]	morphology score, [17]
1 nM	–	–	108	94.3	105	111	–
10 nM	–	–	107	94.7	93.7	105	–
100 nM	–	–	101	95.3	108	104	–
0.3 µM	101	101	–	–	–	–	-0.03
1000 nM	–	–	104	105	92.3	105	–
3 µM	83	102	–	–	–	–	0.43
10000 nM	–	–	94	87.1	102	99.7	–
10 µM	102	100	–	–	–	–	-0.18
30 µM	93	103	–	–	–	–	0.24

Conditions	drug sensitivity score	relative viability EC50 [µM]
Caco-2 [13]	0	–
Caco-2 [20]	–	> 10
Calu-3 [7]	–	> 10
Calu-3 [11]	0	–
HepG2 [8]	–	> 10
HepG2 [12]	0	–
Vero E6 [6]	–	> 10
Vero E6 [9]	0	–

drug-induced phospholipidosis [%], A549-ACE2 [15]
Conditions	0.3 µM	0.833333 µM	3.33333 µM	6.66667 µM	10 µM	30 µM
24 h	-0.44	-1.14	-1.04	-0.5	-1.44	-0.48
48 h	0.52	-1.18	0.04	0.92	-0.18	0.6
72 h	2.35	-0.663	0.399	-0.364	0.448	3.95
